Source: patent publication US6630496B1, “Inhibitors of phospholipase enzymes” (Genetics Institute LLC, priority 1996, dated 2003)
Where “and” joins values, the source holds several entries; their conditions need not be identical. Equal entries are not always repeated. Where two headings read alike, the source gives them in different places.

Legend:
cPLA2 [1] = molecular target: T1, cPLA2 (Homo sapiens, UniProt P47712); test: Coumarine assay (7-hydroxycoumarinyl 6-heptenoate hydrolysis); format: biochemical
T1 sequence (P47712 1-749): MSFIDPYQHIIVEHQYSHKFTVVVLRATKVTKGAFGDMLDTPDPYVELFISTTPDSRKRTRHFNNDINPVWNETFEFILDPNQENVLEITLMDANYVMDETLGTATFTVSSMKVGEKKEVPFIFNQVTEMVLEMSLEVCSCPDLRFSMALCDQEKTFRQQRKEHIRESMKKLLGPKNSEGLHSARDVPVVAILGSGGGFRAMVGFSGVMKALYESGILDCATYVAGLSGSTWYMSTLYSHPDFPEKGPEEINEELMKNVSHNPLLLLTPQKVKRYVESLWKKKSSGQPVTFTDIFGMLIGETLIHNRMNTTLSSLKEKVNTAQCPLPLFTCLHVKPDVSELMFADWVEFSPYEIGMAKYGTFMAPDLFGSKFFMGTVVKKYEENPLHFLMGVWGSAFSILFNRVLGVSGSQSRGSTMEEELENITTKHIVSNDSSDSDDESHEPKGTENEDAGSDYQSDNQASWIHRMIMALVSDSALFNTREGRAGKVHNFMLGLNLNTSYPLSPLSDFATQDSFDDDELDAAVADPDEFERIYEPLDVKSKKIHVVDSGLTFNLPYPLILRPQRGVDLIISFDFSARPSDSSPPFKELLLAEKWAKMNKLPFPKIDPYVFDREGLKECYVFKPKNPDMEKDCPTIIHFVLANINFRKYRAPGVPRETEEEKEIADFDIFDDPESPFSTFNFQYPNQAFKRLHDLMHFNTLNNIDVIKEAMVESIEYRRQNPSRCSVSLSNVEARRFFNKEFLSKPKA
Experimental: (§1) 7-hydroxycoumarinyl 6-heptenoate was used as a monomeric substrate for cPLA2 as reported previously (Huang, Z. et al., 1994, Analytical Biochemistry 222, 110-115). Inhibitors were mixed with 200 μL assay buffer (80 mM Hepes, pH 7.5, 1 mM EDTA) containing 60 μM 7-hydroxycoumarinyl 6-heptenoate. The reaction was initiated by adding 4 μg cPLA2 in 50 μL assay buffer. Hydrolysis of the 7-hydroxycoumarinyl 6-heptenoate ester was monitored in a fluorometer by exciting at 360 nm and monitoring emission at 460 nm. Enzyme activity is proportional to the increasein emission at 460 nm per minute. In the presence of a cPLA2 inhibitor, the rate of increase is less.

cPLA2 [2] = molecular target: T1, cPLA2; test: Soluble substrate assay (LysoPC); format: biochemical
Experimental: (b) Soluble Substrate Assay (LysoPC)
(§2) The lipid was resuspended by vortexing 80 mM Hepes pH 7.5, 1 mM EDTA (1.2×final concentration). A typical assay consisted of lipid suspension (85 μl) to which was added consecutively the inhibitor (5 μl in DMSO) and cPLA2, 200 ng in 80 mM Hepes pH 7.5, 2 mM DTT and […]. This assay was conducted by either the manual assay or automated assay protocol described below.

[3] = system: carrageenan-induced footpad edema; test: Rat carrageenan-induced footpad edema test; format: in vivo; conditions: iv, read-out: % inhibition of rat carrageenan-induced footpad edema
Experimental: Compounds of the present invention were also tested for in vivo activity in a rat paw edema test according to the procedure described in Example 89.
Rat Carrageenan-Induced Footpad Edema Test
Each compound was suspended in 0.3 ml absolute ethanol, 0.1 ml Tween-80 and 2.0 ml Dulbecco's PBS (without calcium or magnesium). To this mixture, 0.1 ml 1N NaOH was added. After solution was complete, additional amounts of PBS were added to adjust the concentration to 1 mg/ml. All comounds remained in solution. Compounds were administered i.v. in a volumne of 5 ml/kg to male Sprague Dawley rats at the same time that edema was induced by injection of 0.05 ml of 1% Type IV carrageenan into the hind footpad. Footpad volume was measured before dosing with compound and 3 hours after dosing with carageenan.

cPLA2 [4] = molecular target: T1, cPLA2; test: Activity assay of Example 136 (Table VIII; sub-assay not stated); format: biochemical; conditions: for IC50: concentration paired with 50 percent inhibition, read-out: CONCENTRATION (micromolar) @ PERCENT INHIBITION 50
Experimental: Activity data for the compounds of Examples 88-135 are reported in Table VIII (assay described in Example 136).
1-palmitoyl-2-V^14C] arachidonyl phosphotidylcholine (58 mCi/mmol) (final concentration 6 μM) and 1,2-dioleyolglycerol (final concentration 3 μM) were mixed and dried under a stream of nitrogen. To the lipids was added 50 mM Hepes pH 7.5 (2×final concentration of lipids) and the suspension was sonicated for 3 min. at 4° C. To the suspension was added 50 mM Hepes pH 7.5, 300 mM NaCl, 2 mM DTT, 2 mM CaCl2 and 2 mg/ml bovine serum albumin (BSA) (Sigma A7511) (1.2×final concentration of lipids). A typical assay consisted of the lipid mixture (85 μl) to which was added consecutively, the inhibitor (5 μl in DMSO) and cPLA2, 10 ng for an automated system or 1 ng for a manual assay, in 10 μl of the BSA buffer. This assay was conducted by either the manual assay or automated assay protocol described below.
as §2, with “1-[^14C]-palmitoyl-2-hydroxyphosphotidyl-choline (57 mCi/mmol) (final concentration 4.4 μM) was dried under a stream of nitrogen. The” for “The”
RBL-2H3 cells were routinely cultured as 37° C. in a 5% CO2 atmosphere in minimal essential medium containing nonessential amino acids and 12% fetal calf serum. The day before the experiment, cells were seeded into spinner flasks at 3×10^5 cells/ml and 100 ng/ml DNP specific-IgE was added. After 20 hrs, the cells were harvested by centrifugation and washed once in serum-free minimal essential media, and resuspended to 2×10^6 cells/ml in serum free media. The cells were then preincubated with either inhibitor in DMSO (1% v/v) or DMSO (1% v/v) for 15 min at 37° C. followed by stimulation with DNP-BSA (300 ng/ml). After 6 min, the cells were removed by centrifugation, and the supernatant was assayed for PGD2 content in accordance with known methods.
as §1

[5] = 60 μM 7-hydroxycoumarinyl 6-heptenoate, read-out: IC50 (μM) Coumarine
[6] = 1 mg/ml, 5 ml/kg, male Sprague Dawley rats, footpad volume 3 hours after carrageenan

Compound: CCC(C)(C)c1ccc(OCC(=O)N2c3ccc(OCc4ccccc4)cc3CC2CSCC(=O)N(C)c2cc(C(=O)O)ccc2OC)c(C(C)(C)CC)c1 (stereo not shown) [Example 70, 3-N-Methyl-(2-(-5-benzyloxy-1-(2,4-bis(1,1-dimethy)propyl)phenoxyacetyl)indolinyl)methylthioacetamido-4-methoxybenzoic Acid]
- IC50 (cPLA2 [1]; [5]): 19 µM
- IC50 (cPLA2 [2]; NA = inhibitory activity not detected, read-out: IC50 (μM) Lyso PC): 0.84 µM
- inhibition in vivo at 1000 µg/mL, 5 mg/kg [3, 6]: 21.7%

Compound: O=C(O)c1cc(NC(=O)c2cc3cc(OCc4ccccc4)ccc3n2Cc2ccccc2)cc(C(=O)O)c1 [Example 123, 5-({[1-Benzyl-5-(benzyloxy)-1H-indol-2-yl]carbonyl}amino)isophthalic Acid]
- PERCENT INHIBITION @ CONCENTRATION 50 micromolar (cPLA2 [4]): 31% and 25%

Compound: O=C(O)c1cc2cc(-c3cc4ccccc4o3)ccc2n1Cc1ccccc1 [Example 110, 5-(1-Benzofuran-2-yl)-1-benzyl-1H-indole-2-carboxylic Acid]
- IC50 (cPLA2 [4]): 50 µM

Compound: O=C(O)c1cc(NC(=O)c2cc3cc(OCc4ccccc4)ccc3n2Cc2ccc(C(F)(F)F)cc2C(F)(F)F)ccc1Oc1ccc(Cl)nc1 [Example 10]
- IC50 (cPLA2 [1]): 28 µM
- IC50 (cPLA2 [2]): 0.33 µM
- inhibition in vivo at 1000 µg/mL, 5 mg/kg ([3]; 3 h): 8.9%

Compound: O=C(O)CN1C(=O)S/C(=C/c2cc3cc(OCc4ccccc4)ccc3n2Cc2ccc(COc3cc(C(F)(F)F)cc(C(F)(F)F)c3)cc2)C1=O [Example 96, 2-(5-{(E)-[5-(Benzyloxy)-1-(4-{[3,5-bis(trifluoromethyl)phenoxy]methyl}benzyl)-1H-indol-2-yl]methylidene}-2,4-dioxo-1,3-thiazolan-3-yl)acetic Acid]
- IC50 (cPLA2 [4]): 5 µM

Compound: O=C(O)c1ccccc1SCC1Cc2cc(OCc3ccccc3)ccc2N1Cc1ccc2ccccc2c1 (stereo not shown) [Example 76]
- IC50 (cPLA2 [1]; [5]): 4.5 µM
- inhibition in vivo at 1000 µg/mL, 5 mg/kg [3, 6]: 8.2%

Compound: O=C(O)c1ccc(CN2C(=O)S/C(=C/c3cc4cc(OCc5ccccc5)ccc4n3Cc3ccc(COc4cc(C(F)(F)F)cc(C(F)(F)F)c4)cc3)C2=O)cc1 [Example 88, 4-[(5-{(E)[5-(Benzyloxy)-1-(4-{[3,5-bis(trifluoromethyl)phenoxyl]methyl}benzyl)-1H-indol-2-yl]methylidene}-2,4-dioxo-1,3-thiazolan-3-yl)methyl]benzoic Acid]
- IC50 (cPLA2 [4]): 3 µM

Compound: O=C(O)c1ccc(CN2C(=O)/C(=C\c3cc4cc(OCc5ccccc5)ccc4n3Cc3ccc(C(F)(F)F)cc3C(F)(F)F)SC2=S)cc1 [Example 107, 4-{[5-((E)-{5-(Benzyloxy)-1-[2,4-bis(trifluoromethyl)benzyl]-1H-indol-2-yl}methylidene)-4-oxo-2-thioxo-1,3-thiazolan-3-yl]methyl}benzoic Acid]
- IC50 (cPLA2 [4]): 3.8 µM

Compound: CC(=O)c1c(CSc2ccccc2C(=O)O)n(Cc2ccc(C(=O)c3nc4ccccc4s3)cc2)c2ccc(OCc3ccccc3)cc12 [Example 134]
- IC50 (cPLA2 [4]): 3.5 µM

Compound: CC(=O)c1c(CSCC(=O)O)n(Cc2ccc(C(=O)c3nc4ccccc4s3)cc2)c2ccc(OCc3ccccc3)cc12 [Example 133]
- IC50 (cPLA2 [4]): 8.5 µM

Compound: CC(=O)c1c(COc2ccc(C(=O)O)cc2)n(Cc2ccc(C(=O)c3nc4ccccc4s3)cc2)c2ccc(OCc3ccccc3)cc12 [Example 135]
- IC50 (cPLA2 [4]): 9 µM

Compound: O=C1NC(=O)/C(=C\c2cc3cc(OCc4ccccc4)ccc3n2Cc2ccc(Cc3ccccc3)cc2)S1 [Example 93, 5-{(E)-[1-(4-Benzylbenzyl)-5-(benzyloxy)-1H-indol-2-yl]methylidene}-1,3-thiazolane-2,4-dione]
- PERCENT INHIBITION @ CONCENTRATION 12.5 micromolar (cPLA2 [4]; 12.5 micromolar): 55%
- IC50 (cPLA2 [4]): 12.5 µM

Compound: O=C(O)c1ccc(CN2C(=O)S/C(=C/c3cc4cc(OCc5ccccc5)ccc4n3Cc3ccc(Cl)cc3)C2=O)cc1 [Example 97, 4-[(5-{(E)-[5-(Benzyloxy)-1-(4-chlorobenzyl)-1H-indol-2yl]methylidene}2,4-dioxo-1,3-thiazolan-3-yl)methyl]benzoic Acid]
- IC50 (cPLA2 [4]): 4.5 µM

Compound: COc1cccc(-c2ccc3c(c2)cc(C(=O)O)n3Cc2ccccc2)c1 [Example 112, 1-Benzyl-5-(3-methoxyphenyl)-1H-indole-2-carboxylic Acid]
- PERCENT INHIBITION @ CONCENTRATION 25 micromolar (cPLA2 [4]; 25 micromolar): 32%
- PERCENT INHIBITION @ CONCENTRATION 50 micromolar (cPLA2 [4]): 46%

Compound: O=C(O)c1cc2cc(-c3ccc(F)cc3)ccc2n1Cc1ccccc1 [Example 111, 1-Benzyl-5-(4-fluorophenyl)-1H-indole-2-carboxylic Acid]
- IC50 (cPLA2 [4]): 13 µM

Compound: O=C(O)/C=C/c1cc2cc(OCc3ccccc3)ccc2n1Cc1ccc(C(F)(F)F)cc1C(F)(F)F [Example 125]
- IC50 (cPLA2 [4]): 23 µM

Compound: O=C(O)c1cc2cc(-c3ccccc3)ccc2n1Cc1ccccc1 [Example 113, 1-Benzyl-5-phenyl-1H-indole-2-carboxylic Acid]
- IC50 (cPLA2 [4]): 170 µM

Compound: O=C1NC(=S)S/C1=C/c1cc2cc(OCc3ccccc3)ccc2n1Cc1ccc(C(F)(F)F)cc1C(F)(F)F [Example 101, 5-((E)-{5-(Benzyloxy)-1-[2,4-bis(trifluoromethyl)benzyl]-1H-indol-2-yl}methylidene)-2-thioxo-1,3-thiazolan-4-one]
- IC50 (cPLA2 [4]): 10 µM

Compound: CCC(C)(C)c1ccc(CCCCn2c(C(=O)Nc3cc(C(=O)O)ccc3OC)cc3cc(OCc4ccccc4)ccc32)c(C(C)(C)CC)c1 [Example 6]
- IC50 (cPLA2 [1]): 6 µM
- IC50 (cPLA2 [2]): 2 µM

Compound: O=C(O)c1ccccc1SCC1Cc2cc(OCc3ccccc3)ccc2N1Cc1ccc(COc2cc(C(F)(F)F)cc(C(F)(F)F)c2)cc1 (stereo not shown) [Example 77]
- IC50 (cPLA2 [1]; [5]): 2.5 µM
- inhibition in vivo at 1000 µg/mL, 5 mg/kg [3, 6]: 13%

Compound: O=C(O)c1cc(NC(=O)c2cc3cc(OCc4ccccc4)ccc3n2Cc2ccc3ccccc3c2)cc(C(=O)O)c1 [Example 7]
- IC50 (cPLA2 [1]): 15 µM
- IC50 (cPLA2 [2]): 2.1 µM
